Test [1] relates to KMS.12.BM cells. Nature of the test: KMS.12.BM cell viability assay (Cell Titer-GLO, ATP quantitation). Type of test: cell-based. As to conditions: Homo sapiens, 72 h, 3 days, concentration required for 50% cell death, read-out: KMS cellular IC50. In short, it runs like this: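 Human myeloma KMS.12.BM cells, 5000 cells/well in RPMI with 10% FBS, were exposed to a compound concentration range for 3 days. Viability was read by Cell Titer-GLO ATP luminescence relative to untreated cells; IC50 is the concentration giving 50% cell death.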

The target of test [2] is BRD4-BD2 (Homo sapiens (Human), UniProt O60885). Nature of the test: BRD4 AlphaScreen assay, BRD4-BD2. Type of test: binding. The settings on record: H4Ac4 peptide, 75 min, room temperature, read-out: BRD4 BD-2 enzyme IC50. The gist of the method:
(§1)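 AlphaScreen read after 75 min dark incubation at room temperature, inhibitors serially diluted in DMSO and added before other components. IC50 from fit of percent control activity versus log inhibitor concentration.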
A general note: In Alpha technology, singlet oxygen from a donor bead excites a nearby acceptor bead.

Test [3] concerns the target BRD4-BD1 (Homo sapiens (Human), UniProt O60885). Nature of the test: BRD4 AlphaScreen assay, BRD4-BD1. The test is classed as binding. As to conditions: H4Ac4 peptide, 75 min, room temperature, read-out: BRD4 BD-1 enzyme IC50. The gist of the method: as §1
Test [4] concerns C-myc. Nature of the test: KMS.12.BM C-myc ELISA assay. The test is classed as cell-based. The settings on record: Homo sapiens; KMS.12.BM cells, 2 hours, concentration required for 50% C-myc inhibition. In short, it runs like this:
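Human myeloma KMS.12.BM cells in RPMI/10% FBS were exposed to a compound concentration range for 2 h, then lysed with protease inhibitors. C-myc in clarified lysates was measured by ELISA. IC50 is the concentration giving 50% C-myc inhibition relative to untreated cells.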

Usually IC50 stands for the concentration that gives 50% inhibition.

SMILES strings stand for the structures. Structures can show the parent of a compound that is named as a salt.

As to `CN1CCN(CCn2c(=O)n(C)c3ccc(-c4cn(C)c(=O)c5[nH]ccc45)c(OCC4CCC4)c32)CC1` [Example 68, 4-(Cyclobutylmethoxy)-1-methyl-5-(6-methyl-7-oxo-6,7-dihydro-1H-pyrrolo[2,3-c]pyridin-4-yl)-3-[2-(4-methylpiperazin-1-yl)ethyl]-1,3-dihydro-2H-benzimidazol-2-one], the IC50 in test [1] is ≤ 1000 nM; in test [2], < 100 nM; in test [3] it was < 100 nM; in test [4], ≤ 1000 nM.

Take `COc1c(-c2cn(C)c(=O)c3[nH]ccc23)ccc2c1n(CCC#N)c(=O)n2C` [Example 54, 3-[7-Methoxy-3-methyl-6-(6-methyl-7-oxo-6,7-dihydro-1H-pyrrolo[2,3-c]pyridin-4-yl)-2-oxo-2,3-dihydro-1H-benzimidazol-1-yl]propanenitrile]: the IC50 in test [1] was ≤ 1000 nM; in test [2], < 100 nM; in test [3] it was 100 to 1000 nM; in test [4] it was ≤ 1000 nM.

`Cc1nc2c(Oc3ccc(F)cc3F)c(-c3cn(C)c(=O)c4[nH]ccc34)ccc2n1C` [Example 5, 4-[4-(2,4-Difluorophenoxy)-1,2-dimethyl-1H-benzimidazol-5-yl]-6-methyl-1,6-dihydro-7H-pyrrolo[2,3-c]pyridin-7-one trifluoroacetate]: the IC50 is ≤ 1000 nM in test [1], < 100 nM in test [2], < 100 nM in test [3] and ≤ 1000 nM in test [4].

In the case of `Cn1cc(-c2ccc3c(ncn3CCN3CCOCC3)c2Oc2ccccc2)c2cc[nH]c2c1=O` [Example 43, 6-methyl-4-[1-(2-morpholin-4-ylethyl)-4-phenoxy-1H-benzimidazol-5-yl]-1,6-dihydro-7H-pyrrolo[2,3-c]pyridin-7-one], the IC50 in test [1] is ≤ 1000 nM; in test [2] it was < 100 nM; in test [3] it was < 100 nM; in test [4] it was ≤ 1000 nM.

For `Cn1cc(-c2ccc3[nH]cnc3c2Oc2ccc(F)cc2F)c2cc[nH]c2c1=O` [Example 2, 4-[4-(2,4-Difluorophenoxy)-1H-benzimidazol-5-yl]-6-methyl-1,6-dihydro-7H-pyrrolo[2,3-c]pyridin-7-one trifluoroacetate], the IC50 in test [1] is ≤ 1000 nM; in test [2] it was < 100 nM; in test [3] it was < 100 nM; in test [4], ≤ 1000 nM.

For the molecule `Cn1cc(-c2ccc3ncn(CCC#N)c3c2Oc2ccccc2)c2cc[nH]c2c1=O` [Example 55, 3-[6-(6-Methyl-7-oxo-6,7-dihydro-1H-pyrrolo[2,3-c]pyridin-4-yl)-7-phenoxy-1H-benzimidazol-1-yl]propanenitrile], the IC50 is ≤ 1000 nM in test [1], < 100 nM in test [2], < 100 nM in test [3] and ≤ 1000 nM in test [4].

On to `Cn1cc(-c2ccc3[nH]c(=O)[nH]c3c2OC2CCCOC2)c2cc[nH]c2c1=O` (stereo not drawn) [Example 26, 5-(6-Methyl-7-oxo-6,7-dihydro-1H-pyrrolo[2,3-c]pyridin-4-yl)-4-(tetrahydro-2H-pyran-3-yloxy)-1,3-dihydro-2H-benzimidazol-2-one], for which the IC50 in test [1] was ≤ 1000 nM; in test [2], < 100 nM; in test [3], < 100 nM; in test [4], ≤ 1000 nM.

Regarding `Cn1cc(-c2ccc3c(cnn3C)c2OCC2CC2)c2cn[nH]c2c1=O` [Example 77, 4-[4-(Cyclopropylmethoxy)-1-methyl-1H-indazol-5-yl]-6-methyl-1,6-dihydro-7H-pyrazolo[3,4-c]pyridin-7-one], the IC50 in test [1] was ≤ 1000 nM; in test [2], < 100 nM; in test [3] it was < 100 nM; in test [4] it was ≤ 1000 nM.

In the case of `Cn1cc(-c2ccc3c(ncn3C)c2Oc2ccc(F)cc2F)c2cc[nH]c2c1=O` [Example 4, 4-[4-(2,4-Difluorophenoxy)-1-methyl-1H-benzimidazol-5-yl]-6-methyl-1,6-dihydro-7H-pyrrolo[2,3-c]pyridin-7-one trifluoroacetate], the IC50 in test [1] is ≤ 1000 nM; in test [2], < 100 nM; in test [3], < 100 nM; in test [4], ≤ 1000 nM.

Regarding `Cn1cc(-c2ccc3ncn(CC(=O)N4CCOCC4)c3c2Oc2ccc(F)cc2F)c2cc[nH]c2c1=O` [Example 30, 4-[7-(2,4-Difluorophenoxy)-1-(2-morpholin-4-yl-2-oxoethyl)-1H-benzimidazol-6-yl]-6-methyl-1,6-dihydro-7H-pyrrolo[2,3-c]pyridin-7-one], the IC50 in test [1] is ≤ 1000 nM; in test [2], < 100 nM; in test [3] it was < 100 nM; in test [4] it was ≤ 1000 nM.

For the molecule `Cn1cc(-c2ccc3[nH]nnc3c2Oc2ccc(F)cc2F)c2cn[nH]c2c1=O` [Example 10, 4-[4-(2,4-Difluorophenoxy)-1H-1,2,3-benzotriazol-5-yl]-6-methyl-1,6-dihydro-7H-pyrazolo[3,4-c]pyridin-7-one], the IC50 in test [1] was ≤ 1000 nM; in test [2] it was < 100 nM; in test [3], < 100 nM; in test [4], ≤ 1000 nM.

Take `Cn1cc(-c2ccc3c([nH]c(=O)n3CCN3CCOCC3)c2Oc2ccccc2)c2cc[nH]c2c1=O` [Example 69, 5-(6-Methyl-7-oxo-6,7-dihydro-1H-pyrrolo[2,3-c]pyridin-4-yl)-1-(2-morpholin-4-ylethyl)-4-phenoxy-1,3-dihydro-2H-benzimidazol-2-one trifluoroacetate]: the IC50 in test [1] was ≤ 1000 nM; in test [2], < 100 nM; in test [3], < 100 nM; in test [4], ≤ 1000 nM.

Turning to `Cn1cc(-c2ccc3ncn(Cc4ccccc4)c3c2Oc2ccccc2)c2cc[nH]c2c1=O` [Example 45, 4-(1-Benzyl-7-phenoxy-1H-benzimidazol-6-yl)-6-methyl-1,6-dihydro-7H-pyrrolo[2,3-c]pyridin-7-one], the IC50 is ≤ 1000 nM in test [1], < 100 nM in test [2], < 100 nM in test [3] and ≤ 1000 nM in test [4].

With `Cn1cc(-c2ccc3c([nH]c(=O)n3C)c2Oc2ccccc2F)c2cc[nH]c2c1=O` [Example 39, 4-(2-Fluorophenoxy)-1-methyl-5-(6-methyl-7-oxo-6,7-dihydro-1H-pyrrolo[2,3-c]pyridin-4-yl)-1,3-dihydro-2H-benzimidazol-2-one], the IC50 is ≤ 1000 nM in test [1], < 100 nM in test [2], < 100 nM in test [3] and ≤ 1000 nM in test [4].

As to `CNC(=O)Cn1cnc2c(Oc3ccc(F)cc3F)c(-c3cn(C)c(=O)c4[nH]ccc34)ccc21` [Example 36, 2-[4-(2,4-difluorophenoxy)-5-(6-methyl-7-oxo-6,7-dihydro-1H-pyrrolo[2,3-c]pyridin-4-yl)-1H-benzimidazol-1-yl]-N-methylacetamide], the IC50 was ≤ 1000 nM in test [1], < 100 nM in test [2], < 100 nM in test [3] and ≤ 1000 nM in test [4].

For `Cn1cc(-c2ccc3ncc(=O)[nH]c3c2Oc2ccc(F)cc2F)c2cn[nH]c2c1=O` [Example 75, 8-(2,4-Difluorophenoxy)-7-(6-methyl-7-oxo-6,7-dihydro-1H-pyrazolo[3,4-c]pyridin-4-yl)quinoxalin-2(1H)-one], the IC50 was ≤ 1000 nM in test [1], < 100 nM in test [2], < 100 nM in test [3] and ≤ 1000 nM in test [4].

Turning to `Cn1cc(-c2ccc3c([nH]c(=O)n3C)c2Oc2cccc(F)c2)c2cc[nH]c2c1=O` [Example 40, 4-(3-Fluorophenoxy)-1-methyl-5-(6-methyl-7-oxo-6,7-dihydro-1H-pyrrolo[2,3-c]pyridin-4-yl)-1,3-dihydro-2H-benzimidazol-2-one], the concentration for half-maximal inhibition (IC50) in test [1] was ≤ 1000 nM; in test [2], < 100 nM; in test [3], < 100 nM; in test [4], ≤ 1000 nM.

As for `Cn1cc(-c2ccc3oc(CNC(=O)C4CC4)nc3c2Oc2ccccc2)c2cc[nH]c2c1=O` [Example 108, N-{[5-(6-Methyl-7-oxo-6,7-dihydro-1H-pyrrolo[2,3-c]pyridin-4-yl)-4-phenoxy-1,3-benzoxazol-2-yl]methyl}cyclopropanecarboxamide], the IC50 in test [1] is ≤ 1000 nM; in test [2] it was < 100 nM; in test [3], < 100 nM; in test [4], ≤ 1000 nM.

For the origin of these results see US9918990B2, “Substituted pyrrolo[2,3-c]pyridines and pyrazolo[3,4-c]pyridines as BET protein inhibitors” (Incyte Corporation, priority 2013, dated 2018).
